Consider 14 compounds from article PMC12063173, “Metabolic Profiling of a Mediterranean-Inspired (Poly)phenol-Rich Mixture in the Brain: Perfusion Effect and In Vitro Blood–Brain Barrier Transport Validation” (Journal of Agricultural and Food Chemistry, 2025).

Series [1] in a line: Targeted metabolomics (UPLC-ESI-QTOF) identification of metabolites in plasma, PB and NPB. To be noted: P plasma, PB perfused brain, NPB nonperfused brain, 1-24 h after oral capsule.
Procedure: Adult male Sprague–Dawley rats weighing 250–300 g were purchased from the Animal Experimentation Service of the University of Murcia (Murcia, Spain). […] Based on the experimental design shown in Figure 1, one capsule was administered by gavage to each fasting animal. A total of 40 animals were used in the study. Thirty animals received a capsule containing a mixture of different Mediterranean food extracts, while ten animals received a capsule with microcrystalline cellulose and served as the control group. […] To minimize animal use in accordance with the 3Rs principle, two control animals were sacrificed at each time point (one PB and one NPB). These controls served to identify potential endogenous compounds or background signals not related to the extract administration. All animals were fasted overnight prior to gavage and euthanized with carbon dioxide.
Plasma samples were extracted with ACN:formic acid (98:2, v/v), centrifuged and evaporated in a speed vacuum concentrator (Savant SPD14 0DDA). The evaporated samples were resuspended in 100 μL MeOH and filtered through 0.22 μm regenerated cellulose filters (Minisart Sartorius, Madrid, Spain). Next, half of the animals at each time point were perfused with ice-cold phosphate-buffered saline, and the blood-free brain was dissected out immediately and stored at – 80 °C until analysis, as previously reported.[37],[48]
Approximately 400 mg of brain tissue (perfused or nonperfused) was weighed and extensively washed with cold PBS to avoid external blood contamination. After weighting, the samples were placed in 2 mL screw cap tubes. […] The evaporated samples were resuspended in 100 μL MeOH and filtered through 0.22 μm regenerated cellulose filters.
We performed a targeted metabolomic analysis using an ultrahigh-performance liquid chromatographic system (UPLC) coupled to a quadrupole-time-of-flight (QTOF) mass spectrometer. The phenolic compounds were separated using an Agilent Poroshell 120 column (100 mm × 3 mm, 2.7 μm) and a 5 μL injection volume. […] The flow rate was set constant at 0.4 mL/min. The spectra were acquired in the m/z range from 100 to 1100, in negative polarity mode and an acquisition rate of 1.5 spectra per second. Quantitative data were processed using the Mass HunterQualitative Analysis software (version B.08.00, Agilent). A target screening strategy was applied for the qualitative analysis of possible metabolites derived from the consumption of the Mediterranean blend. […] These compounds encompass derived metabolites conjugated (glucuronides, sulfates, and sulfoglucuronides, among others). The exact mass of the proposed compound was extracted using an extraction window of 0.01 m/z. Metabolite quantification was performed by integrating the peak areas of their extracted ion chromatograms (EICs). Compounds with available standards were quantified using calibration curves derived from the respective standards, while other metabolites were semiquantified based on their peak area values.
A short description of series [2]: Plasma pharmacokinetics of phenolic metabolites after oral capsule of (poly)phenol-rich Mediterranean extract mixture. To be noted: for AUC0-t plasma / MRT0-t plasma / T1/2 plasma / Tmax plasma: oral capsule, 0-24 h, n = 6 per time point.
Procedure: Adult male Sprague–Dawley rats weighing 250–300 g were purchased from the Animal Experimentation Service of the University of Murcia (Murcia, Spain). […] Animals were maintained in a temperature-controlled environment with a 12 h light-dark cycle. […] Based on the experimental design shown in Figure 1, one capsule was administered by gavage to each fasting animal. A total of 40 animals were used in the study. Thirty animals received a capsule containing a mixture of different Mediterranean food extracts, while ten animals received a capsule with microcrystalline cellulose and served as the control group. At each time point (1, 3, 6, 8, and 24 h postadministration), six animals from the extract group were sacrificed, three with transcardial perfusion using saline (PB) and three without perfusion (NPB), to assess the distribution of extract-derived metabolites in plasma and brain. To minimize animal use in accordance with the 3Rs principle, two control animals were sacrificed at each time point (one PB and one NPB). […] All animals were fasted overnight prior to gavage and euthanized with carbon dioxide.
Blood samples collected by cardiac puncture in sodium heparin tubes at each time point after sacrifice were immediately centrifuged at 14,000 × g for 15 min at 4 °C, and the plasma was stored at −80 °C until their analysis. Plasma samples were extracted with ACN:formic acid (98:2, v/v), centrifuged and evaporated in a speed vacuum concentrator (Savant SPD14 0DDA). The evaporated samples were resuspended in 100 μL MeOH and filtered through 0.22 μm regenerated cellulose filters (Minisart Sartorius, Madrid, Spain).
We performed a targeted metabolomic analysis using an ultrahigh-performance liquid chromatographic system (UPLC) coupled to a quadrupole-time-of-flight (QTOF) mass spectrometer. The phenolic compounds were separated using an Agilent Poroshell 120 column (100 mm × 3 mm, 2.7 μm) and a 5 μL injection volume. The mobile phases used were 0.1% formic acid in water (A) and 0.1% formic acid in ACN (B), and the gradient was: 0–3 min, 5–15% B; 3–11 min, 15–30% B; 11–14 min, 30–50% B, 14–16 min, 50–90% B. Finally, the B content was decreased to the initial conditions (5%) in 1 min, and the column re-equilibrated for 4 min. The flow rate was set constant at 0.4 mL/min. The spectra were acquired in the m/z range from 100 to 1100, in negative polarity mode and an acquisition rate of 1.5 spectra per second.
Series [3] can be described thus: Perfused brain (PB) kinetics of phenolic metabolites after oral capsule. On the set-up: AUC0-t PB: concentration or dose not given beside the values. Type of series: in vivo, Sprague–Dawley rats. To be noted: for Tmax: male, Sprague-Dawley, rat, 22 mg extract blend per capsule, one capsule per animal; for Tmax / AUC0-t PB / Cmax PB / MRT0-t PB / T1/2 PB / Tmax PB: perfused brain, oral capsule, 0-24 h, n = 3 per time point; for PB versus NPB comparison: perfused versus nonperfused brain. An excerpt:
(§1) Statistical analyses were applied depending on the experimental context.

Series [4] can be described thus: Nonperfused brain (NPB) kinetics of phenolic metabolites after oral capsule. To be noted: nonperfused brain, oral capsule, 0-24 h, n = 3 per time point. Type of series: in vivo, Sprague–Dawley rats. On the set-up: AUC0-t NPB: concentration or dose not given beside the values.
From the text: as §1

Setting [5] is: read-out: Cmax plasma, oral capsule, 0-24 h, n = 6 per time point.
The mark [6] stands for this setting: male, Sprague-Dawley, rat, po, 22 mg extract blend per capsule, one capsule per animal.
Where [7] appears, read: male, Sprague-Dawley, rat, 22 mg extract blend per capsule, one capsule per animal.

Entries after “also recorded” stand apart in the source; their conditions may differ. Where a name gives a salt, the structure may show the parent alone. Read-outs that look alike come from different tables or passages of the source.

As to hydroxyphenylacetic acid sulfate, the occurrence entry in series [1] is “PB, NPB, P”.
`COc1ccc(C2CC(=O)c3c(O)cc(O)cc3O2)cc1O[C@@H]1O[C@H](C(=O)O)[C@@H](O)[C@H](O)[C@H]1O` (stereo partly drawn) [hesperetin 3′-O-glucuronide]: in series [2], the AUC0-t plasma amounted to 0.011 ± 0.0013 µM·h, the MRT0-t plasma is given as 23.48 h, the T1/2 plasma is on record as 14.80 h and the Tmax plasma came out at 5.7 ± 2.7 h. Further, the Cmax (usually the highest concentration seen after dosing) in series [2] (setting [5]) worked out at 2.7 ± 0.9 nM. In addition, in series [1], the occurrence result is recorded as “no detectable levels in PB or NPB”.
Take `COc1ccc([C@@H]2CC(=O)c3c(O)cc(O[C@@H]4O[C@H](C(=O)O)[C@@H](O)[C@H](O)[C@H]4O)cc3O2)cc1O` [hesperetin 7-O-glucuronide]: in series [2], the AUC0-t plasma was 0.036 ± 0.012 µM·h, the MRT0-t plasma is listed as 11 ± 5.8 h, the T1/2 plasma amounted to 7.4 ± 3.4 h and the Tmax plasma is 4.2 ± 2.8 h. Further, the Cmax in series [2] (setting [5]) turned out to be 4 ± 0.7 nM. Further, in series [1], the occurrence entry was “no detectable levels in PB or NPB”.
For the compound `O=C1CCC(Cc2ccc(O)c(OS(=O)(=O)O)c2)O1` (stereo not drawn) [5-(3,4-dihydroxyphenylvalerolactone) sulfate], in series [2], the AUC0-t plasma amounted to 0.113 ± 0.078 µM·h, the MRT0-t plasma is given as 31 ± 44 h, the T1/2 plasma is 19 ± 29 h and the Tmax plasma was 4.5 ± 1.7 h. Also, the Cmax in series [2] (setting [5]) amounted to 12.1 ± 5 nM. Further, the occurrence entry in series [1] was “undetectable in both PB and NPB”. Moreover, the occurrence result in series [1] (listed as 5-(3,4-dihydroxyphenyl)valerolactone sulfate) is on record as “exclusively detected in plasma”.
Turning to `O=C(O)c1ccc(O)cc1O` [2,4-dihydroxybenzoic acid], the “concentration in plasma (approximate)” value in series [2] is given as “around 500 nM”. Further, in series [2] (setting [6]), the AUC(0-t) (as a rule, the area under the concentration-time curve up to a stated or last time point) was determined as 6.42 ± 1.92 µM·h; the Cmax came to 534 ± 211 nM; the MRT last is 22 ± 11 h; the Tmax – broadly, the time at which the peak concentration occurs – was 12 ± 11 h. Also, the half-life in series [2] (setting [6]) is 14 ± 6 h. In series [3], the Tmax was 10 ± 12 h, the “AUC0-t PB” value came to 44 ± 17 pmol·h/g, the “Cmax PB” value came out at 4.3 ± 2.8 pmol/g tissue and the “PB versus NPB comparison” value was “significantly lower AUC values in PB compared to NPB”. Moreover, the occurrence result in series [1] was “consistently detected in plasma and brain at all time points; also recorded: PB, NPB, P”. For the same compound, the time of peak concentration (Tmax) in series [4] (setting [7]) amounted to 14 ± 15 h. The MRT last in series [4] (male, Sprague-Dawley, rat, 22 mg extract blend per capsule, one capsule per animal, read-out: MRT0-t NPB) is 7.9 ± 1.1 h. Also, the half-life in series [4] (male, Sprague-Dawley, rat, 22 mg extract blend per capsule, one capsule per animal, read-out: T1/2 NPB (converted)) was 5.4 ± 3.6 h. Besides, in series [4], the “AUC0-t NPB” value was determined as 92 ± 31 pmol·h/g and the “Cmax NPB” value was 10 ± 1.2 pmol/g tissue.
On to `COc1cc(CCO)ccc1OS(=O)(=O)O` [homovanillic alcohol sulfate], for which the “PB versus NPB comparison” value in series [3] is “higher concentrations in PB”. Besides, in series [1], the occurrence result is given as “PB, NPB, P”.
Consider `O=S(=O)(O)Oc1cc(CCO)ccc1O` [hydroxytyrosol 3-O-sulfate], for which, in series [2], the AUC0-t plasma was 1.432 ± 0.648 µM·h, the MRT0-t plasma stood at 4.3 ± 1.0 h, the T1/2 plasma came out at 4.0 ± 2.3 h and the Tmax plasma came out at 1.4 ± 0.9 h. In addition, in series [2] (setting [5]), the Cmax came to 303 ± 45 nM. Besides, in series [3], the “AUC0-t PB” value worked out at 16 ± 7.8 pmol·h/g, the “Cmax PB” value is reported as 3.4 ± 3.1 pmol/g tissue, the “MRT0-t PB” value is 11 ± 5.9 h and the “T1/2 PB” value came out at 7.3 ± 3.6 h. Further, the “Tmax PB” value in series [3] was 2.7 ± 2.9 h. Besides, in series [1], the occurrence entry is recorded as “PB, NPB, P”. For the same compound, the occurrence result in series [1] (listed as hydroxytyrosol 3-sulfate) is “identified in plasma, perfused brain (PB), and nonperfused brain (NPB)”. Moreover, in series [4], the “AUC0-t NPB” value was found to be 60 ± 8.4 pmol·h/g, the “Cmax NPB” value was 9.7 ± 5.7 pmol/g tissue, the “MRT0-t NPB” value was determined as 7.1 ± 3.1 h and the “T1/2 NPB” value worked out at 7.0 ± 0.7 h. The “Tmax NPB” value in series [4] was found to be 3.0 ± 0.0 h.
For `COc1cc(/C=C/C(=O)O)ccc1OS(=O)(=O)O` [ferulic acid 4-O-sulfate], in series [2], the “plasma concentration relative to p-coumaric acid 4-O-sulfate” value is on record as “approximately 3 fold”, the AUC0-t plasma was found to be 1.114 ± 0.459 µM·h, the MRT0-t plasma was found to be 14 ± 5.1 h and the T1/2 plasma is recorded as 12 ± 6.3 h. Besides, the Tmax plasma in series [2] stood at 4.2 ± 1.6 h. Also, the Cmax in series [2] (setting [5]) amounted to 129 ± 107 nM. In series [3], the “AUC0-t PB” value was 3.0 ± 0.5 pmol·h/g, the “Cmax PB” value is on record as 0.2 ± 0.1 pmol/g tissue, the “Tmax PB” value is 12 ± 11 h and the “PB versus NPB comparison” value is listed as “significantly lower AUC values in PB compared to NPB”. Also, the occurrence entry in series [1] was “PB, NPB, P”. Moreover, in series [4], the “AUC0-t NPB” value is 4.8 ± 2.6 pmol·h/g, the “Cmax NPB” value came out at 0.3 ± 0.2 pmol/g tissue and the “Tmax NPB” value is on record as 1.0 ± 0.0 h.
`O=S(=O)(O)Oc1ccc(CCO)cc1` [tyrosol 4-O-sulfate]: in series [2], the AUC0-t plasma was 0.122 ± 0.116 µM·h, the MRT0-t plasma is 7.15 ± 3.3 h, the T1/2 plasma was determined as 6.5 ± 1.8 h and the Tmax plasma came to 1 ± 0 h. Also, the peak concentration (Cmax) in series [2] (setting [5]) is 20 ± 30 nM. Also, in series [3], the “AUC0-t PB” value was 0.9 ± 1.3 pmol·h/g, the “Cmax PB” value is recorded as 0.1 ± 0.08 pmol/g tissue and the “Tmax PB” value came out at 2.3 ± 3.2 h. Moreover, in series [1], the occurrence entry is “PB, NPB, P”. Also, the occurrence result in series [1] (listed as tyrosol 4-sulfate) was “identified in plasma, perfused brain (PB), and nonperfused brain (NPB)”. In series [4], the “AUC0-t NPB” value was 31 ± 43 pmol·h/g, the “Cmax NPB” value stood at 4.7 ± 6.1 pmol/g tissue, the “MRT0-t NPB” value was found to be 7.4 ± 0.4 h and the “T1/2 NPB” value was determined as 4.5 ± 1.1 h. Also, the “Tmax NPB” value in series [4] is reported as 2.0 ± 1.4 h.
For `COc1ccc(CCC(=O)O)cc1O` [3-(3′-hydroxy-4′-methoxyphenyl)propionic acid)], the “PB versus NPB comparison” value in series [3] is reported as “higher concentrations in PB”. The occurrence entry in series [1] is “PB, NPB, P”.
Take `O=S(=O)(O)Oc1ccc(CCO)cc1O` [hydroxytyrosol 4′-O-sulfate]: in series [2], the AUC0-t plasma was 0.793 ± 0.403 µM·h, the MRT0-t plasma is reported as 3.4 ± 0.5 h, the T1/2 plasma amounted to 3.0 ± 0.6 h and the Tmax plasma came out at 1 ± 0 h. Further, the Cmax in series [2] (setting [5]) came to 192 ± 76 nM. For the same compound, in series [3], the “AUC0-t PB” value amounted to 52 ± 30 pmol·h/g, the “Cmax PB” value is on record as 4.8 ± 1.5 pmol/g tissue, the “MRT0-t PB” value is 18 ± 14 h and the “T1/2 PB” value is 12 ± 8.9 h. In addition, the “Tmax PB” value in series [3] is recorded as 2.3 ± 2.5 h. Further, the occurrence entry in series [1] was “PB, NPB, P”. The occurrence entry in series [1] (listed as hydroxytyrosol 4′-sulfate) is “identified in plasma, perfused brain (PB), and nonperfused brain (NPB)”. For the same compound, in series [4], the “AUC0-t NPB” value was determined as 84 ± 22 pmol·h/g, the “Cmax NPB” value amounted to 6.3 ± 2.6 pmol/g tissue, the “MRT0-t NPB” value came to 26 ± 22 h and the “T1/2 NPB” value amounted to 18 ± 14 h. Besides, the “Tmax NPB” value in series [4] is 2.3 ± 1.2 h.
For the compound “hydroxyphenyl propionic acid sulfate [hydroxyphenyl propionic acid sulfate peak-1]”, the occurrence result in series [1] is “PB, NPB, P”.
On to `O=C(O)CCc1ccc(O)c(OS(=O)(=O)O)c1` [dihydrocaffeic acid 3-O-sulfate], for which, in series [2], the AUC0-t plasma worked out at 0.077 ± 0.031 µM·h, the MRT0-t plasma was 9.0 ± 2.5 h, the T1/2 plasma was found to be 6.0 ± 1.6 h and the Tmax plasma is 4.5 ± 1.7 h. Also, the Cmax in series [2] (setting [5]) stood at 9.6 ± 4.5 nM. Also, the occurrence entry in series [1] is listed as “exclusively detected in plasma”.
Take `O=C(O)CCc1ccccc1O` [3-(2-hydroxyphenyl) propionic acid]: in series [2] (setting [6]), the AUC(0-t) was 0.213 ± 0.053 µM·h, the Cmax was 20 ± 11 nM, the MRT last was 8.89 h and the Tmax turned out to be 10 h. Besides, the half-life in series [2] (setting [6]) was 8.26 h. In addition, in series [3], the time of peak concentration (Tmax) was determined as 9 ± 1.4 h, the “AUC0-t PB” value was 1.8 ± 2.2 pmol·h/g and the “Cmax PB” value is 0.6 ± 0.5 pmol/g tissue. For the same compound, the occurrence entry in series [1] is “PB, NPB, P”. In series [1] (listed as 3-(2-hydroxyphenyl)propionic acid), the occurrence entry was “consistently detected in plasma and brain at all time points”. Further, in series [4] (setting [7]), the Tmax was found to be 3.3 ± 4 h. Further, in series [4], the “AUC0-t NPB” value came out at 1.1 ± 0.8 pmol·h/g and the “Cmax NPB” value is on record as 0.3 ± 0.04 pmol/g tissue.
